Among the data in the NIST ThermoML archive (doi:10.1021/je100361s) are electrical conductivity values, retold here.

The conditions of the data set: 101.33 kPa, Liquid, Shanghai Precision & Scientific Instrument Co., LTD (DDS-307).

± gives the expanded uncertainty stated by the source.

In the case of `CC(C)O` [propan-2-ol], the electrical conductivity is, setting by setting: (298.15 K) 5.2e-05 ± 3.1e-06 S/m; (303.15 K) 7e-05 ± 4.2e-06 S/m; (308.15 K) 7.5e-05 ± 4.5e-06 S/m; (313.15 K) 8.08e-05 ± 4.9e-06 S/m; (318.15 K) 8.43e-05 ± 5.1e-06 S/m.

`O` [water]: the electrical conductivity by setting is: (303.15 K) 0.00287 ± 0.00017 S/m; (308.15 K) 0.00323 ± 0.00019 S/m; (313.15 K) 0.00349 ± 0.00021 S/m; (318.15 K) 0.00375 ± 0.00022 S/m.

As to `CCO` [ethanol], the electrical conductivity was 0.000413 ± 2.5e-05 S/m (298.15 K); 0.000504 ± 3e-05 S/m (303.15 K); 0.000584 ± 3.5e-05 S/m (308.15 K); 0.000644 ± 3.9e-05 S/m (313.15 K); 0.000711 ± 4.3e-05 S/m (318.15 K).

On to `CCCCO` [butan-1-ol], for which the electrical conductivity (298.15 K) worked out at 4.4e-05 ± 2.6e-06 S/m; the electrical conductivity (303.15 K) was 5.55e-05 ± 3.3e-06 S/m; the electrical conductivity (308.15 K) is 6.58e-05 ± 4e-06 S/m; the electrical conductivity (313.15 K) was 6.9e-05 ± 4.1e-06 S/m; the electrical conductivity (318.15 K) came out at 8e-05 ± 4.8e-06 S/m.
